In patent US9586943B2, “Bilaterally-substituted tricyclic compounds for the treatment of human immunodeficiency virus type-1 (HIV-1) infection and other diseases” (CENTRO DE INVESTIGACIÓN PRINCIPE FELIPE, priority 2013, dated 2017):
Like-named read-outs stand apart in the source and are kept apart here. Numbered stars: 1 amine (or outer) side, 2 acyl side, 3 side chain; on linkers, the order of the positions; unused ones are H or OH. Suc = O=C(CCC(=O)[*:2])[*:1]

Columns and labels:
[1] = tested on: Escherichia coli (ATCC 53868); assay: Disk diffusion assay (Kirby-Bauer), E. coli; type: cell-based; settings: disk potency 20 μg, 8 mm discs, 16-18 hours at 37° C.
[2] = tested on: Staphilococcus aureus (ATCC 35556); assay: Disk diffusion assay (Kirby-Bauer), S. aureus; type: cell-based; settings: disk potency 20 μg, 8 mm discs, 16-18 hours at 37° C.
[3] = Cellular viability (CellTiter Glo); type: cell-based; settings: human, MT-2 cells; 48 h, CellTiter Glo; read-out: CC50 (celular viability)
[4] = molecular target: RRE RNA hairpin (internal loop IIB); assay: SPR analysis of interaction with RRE RNA hairpin; type: binding, HIV-1
TARc hairpin = assay: SPR binding specificity relative to control TARc hairpin; parameters: species or system HIV-1
Description: (§1) The interaction of these biphenyl and terphenyl compounds with the RRE RNA hairpin (SEQ. ID. No 1) was analysed using surface plasmon resonance (SPR) experiments(19). In addition to the RRE, two control RREc (SEQ. ID. No 2) and TARc (SEQ. ID. No 3) hairpins were also immobilised on the chips. In the RREc hairpin the internal loop forming the Rev high-affinity binding site is replaced with a G:G opposition, whereas in the TARc hairpin this loop is substituted with the HIV-1 Tat-binding UCU bulge(20). In this way, applicants could simultaneously assess the interaction of each ligand with RRE, RREc and TARc, obtaining important information about binding selectivity. In addition, the SPR methodology allows deduction of binding stoichiometries, which are likewise related to the specificity of the interaction between a ligand and a given RNA species. These are key considerations in the nucleic acid recognition field(4, 5, 14).
(§2) The Surface Plasmon Resonance (SPR) experiments were carried out at 25° C. with a Biacore T100 optical biosensor system, 4-channel streptavidin-derivatized Series S SA chips, and either 10 mM MES (pH 6.25), 150 mM NaCl, 1 mM EDTA and 0.005% P20 or 10 mM HEPES pH 7.4, 150 mM NaCl, 3 mM EDTA and 0.005% P20 aqueous solutions as mobile phases. After immobilizing approximately 300 response units (RU) of the RRE, RREc and TARc RNA hairpins on the chips, the compounds were injected during 10-minute periods at a flow rate of 20 μL/min and at concentrations generally ranging from 0.01 μM to 100.0 μM, and then allowed to dissociate for 10 more minutes. The RNA surfaces were regenerated with solutions containing 0.5 to 1 M NaCl and 10 to 100 mM NaOH, depending on the ligand.
(§3) RNA-ligand SPR equilibrium dissociation constants (Kd) were determined by fitting the sensorgrams to one-site or two-site equations:
[formula] [formula] where RU is the response in the steady-state region of the sensorgrams, C is the concentration of free compound in equilibrium with the complex, RUmax is the maximum response and RI is an offset term accounting for the bulk refractive index contribution of the sample. In these models, Kd, RUmax and RI are adjustable parameters, and the stoichiometry of each binding site was determined by comparing the fitted RUmax values with the predicted ones, calculated from the molecular weights of RNA and compound and the amount of RNA in the flow cell(32). The two-site equation was only utilized if it provided a clear curve-fitting improvement over the one-site model. […] All SPR experiments were double-referenced(33).

RREc hairpin = assay: SPR binding specificity relative to control RREc hairpin; parameters: species or system HIV-1
Description: as §1, §2, §3
[formula] [formula] where RU is the response in the steady-state region of the sensorgrams, C is the concentration of free compound in equilibrium with the complex, RUmax is the maximum response and RI is an offset term accounting for the bulk refractive index contribution of the sample. In these models, Kd, RUmax and RI are adjustable parameters, and the stoichiometry of each binding site was determined by comparing the fitted RUmax values with the predicted ones, calculated from the molecular weights of RNA and compound and the amount of RNA in the flow cell(32). The two-site equation was only utilized if it provided a clear curve-fitting improvement over the one-site model. The specificity of the RRE interaction was quantified by calculating the Kd(RREc)/Kd(RRE) and […] ratios. All SPR experiments were double-referenced(33).

[5] = molecular target: RRE-Rev34-50 interaction (RRE hairpin and frevp); assay: Fluorescence polarization displacement assay of the RRE-Rev34-50 interaction; type: binding, HIV-1
HIV-1 (NL4.3-Ren) = assay: microbe, parasite or virus in culture; type: cell-based; settings: for EC50: Human immunodeficiency virus 1, 48 h, read-out: EC50 (NL4.3-Ren)
MT-2 cells = assay: Cellular viability (CellTiter Glo); type: cell-based
RRE hairpin = assay: Two-dimensional NMR (TOCSY) titration of the RRE hairpin; type: binding, HIV-1; settings: D2O, pH 6.0
[6] = 25° C., pH 6.3, high affinity site when two-site model, JB-399 and IIS-530: ligand range 0.1-25 μM, read-out: Kd(RRE)
[7] = read-out: IC50 (RRE-Rev 50% inhibitory concentration), fluorescence polarization, 25° C., 60 nM RRE and 10 nM frevp
[8] = 25° C., pH 7.4, high affinity site when two-site model, footnote d compounds: ligand range 0.1-25 μM, read-out: Kd(RRE)

| Compound | disk susceptibility of E. coli (diameter of the inhibition area) [1] | disk susceptibility of S. aureus (diameter of the inhibition area) [2] | CC50 at 48 h [3] | Kd [4, 6] | Kd(TARc)/Kd(RRE) (TARc hairpin; 25° C., pH 6.3) | IC50 [5, 7] | EC50 (HIV-1 (NL4.3-Ren)) | also measured |
| --- | --- | --- | --- | --- | --- | --- | --- | --- |
| CC1(C)S[C@@H]2[C@H](NC(=O)[C@H](N)c3ccccc3)C(=O)N2[C@H]1C(=O)O [Ampicillin, ampicillin] | 25.6 ± 1.7 | 38.1 ± 1.6 |  |  |  |  |  |  |
| COc1cc(CCN)c(-c2ccc(-c3cc(CCN)c(OCc4ccccc4)c(CCN)c3)c(OC)c2)c(CCN)c1 [IIS-311, 2,2′,2″,2′″-(4″-(benzyloxy)-3′,4-dimethoxy-[1,1′:4′,1″-terphenyl]-2,3″,5″,6-tetrayl)tetraethanamine] |  |  | > 100 µM | 9.4 ± 5.7 µM | 3.2 | 162 ± 118 µM | > 100 µM | Kd(RREc)/Kd(RRE) (RREc hairpin; 25° C., pH 6.3): 4.9 |
| COc1cc(CCN)c(-c2ccc(-c3cc(CCN)c(OCc4ccc(C(F)(F)F)cc4)c(CCN)c3)c(OC)c2)c(CCN)c1 [IIS-478, 2,2′,2″,2′″-(3′,4-dimethoxy-4″-((4-(trifluoromethyl)benzyl)oxy)-[1,1′:4′,1″-terphenyl]-2,3″,5″,6-tetrayl)tetraethanamine] | inactive | inactive | > 100 µM |  |  | 232 ± 32.7 µM | > 100 µM | Kd [4, 8]: 14 ± 5.1 µM; Kd(TARc)/Kd(RRE) (TARc hairpin; 25° C., pH 7.4): 9.6; Kd(RREc)/Kd(RRE) (RREc hairpin; 25° C., pH 7.4): 10.3 |
| COc1cc(CCN)c(-c2ccc(-c3cc(CCN)c(OCC4CCCCC4)c(CCN)c3)c(OC)c2)c(CCN)c1 [IIS-530, 2,2′,2″,2′″-(4″-(cyclohexylmethoxy)-3′,4-dimethoxy-[1,1′:4′,1″-terphenyl]-2,3″,5″,6-tetrayl)tetraethanamine] |  |  | > 100 µM | 46.2 ± 32 µM | 4.0 | 75.5 ± 39.9 µM | > 100 µM | Kd(RREc)/Kd(RRE) (RREc hairpin; 25° C., pH 6.3): 1.3 |
| CCc1cc(-c2c(CCN)cc(OC)cc2CCN)ccc1-c1cc(CCN)c(O)c(CCN)c1 [IIS-792, 2″,3,5,6″-tetrakis(2-aminoethyl)-2′-ethyl-4″-methoxy-[1,1′:4′,1″-terphenyl]-4-ol] |  |  | > 100 µM |  |  | 93.6 ± 24.4 µM | 46.3 µM | cellular toxicity (in words) (MT-2 cells): no cellular toxicity; Kd [4, 8]: 8.1 ± 1.8 µM; Kd(TARc)/Kd(RRE) (TARc hairpin; 25° C., pH 7.4): 1.6; Kd(RREc)/Kd(RRE) (RREc hairpin; 25° C., pH 7.4): 1.2; inhibition of HIV-1 replication (in words) (HIV-1 (NL4.3-Ren)): inhibited HIV-1 replication |
| COc1cc(CCN)c(-c2cc(CCN)c(O)c(CCN)c2)c(CCN)c1 [JB-398, 2′,3,5,6′-tetrakis(2-aminoethyl)-4′-methoxy-[1,1′-biphenyl]-4-ol] |  |  | > 100 µM | 31.1 ± 5 µM | 3.7 |  | > 100 µM | RRE interaction by NMR chemical shift perturbation (in words) (RRE hairpin): weak; IC50 ([5]; fluorescence anisotropy, read-out: IC50 (RRE-Rev34-50 inhibition)): 22.1 µM |
| COc1cc(CCN)c(-c2ccc(-c3cc(CCN)c(O)c(CCN)c3)cc2)c(CCN)c1 [JB-399, 2″,3,5,6″-tetrakis(2-aminoethyl)-4″-methoxy-[1,1′:4′,1″-terphenyl]-4-ol] |  |  | > 100 µM | 14.4 ± 6.8 µM | 11.7 | 23.4 ± 3.6 µM | > 100 µM |  |
| NC[C@H]1O[C@H](O[C@H]2[C@H](O)[C@@H](O[C@H]3O[C@H](CO)[C@@H](O)[C@H](N)[C@H]3O)[C@H](N)C[C@@H]2N)[C@H](O)[C@@H](O)[C@@H]1O [Kanamycin A, kanamycin A] | 22.0 ± 2.0 | 16.5 ± 1.1 |  |  |  |  |  |  |
| NC[C@H]1O[C@H](O[C@H]2[C@H](O)[C@@H](O[C@H]3O[C@H](CO)[C@@H](O)[C@H](N)[C@H]3O)[C@H](N)C[C@@H]2N)[C@H](N)[C@@H](O)[C@@H]1O [Kanamycin B, kanamycin B] | 20.0 ± 2.1 | 16.7 ± 1.2 |  |  |  |  |  |  |
| COc1cc(CCN)c(-c2c(CCN)cc(OC)cc2CCN)c(CCN)c1 [SC-30, 2,2′,2″,2′″-(4,4′-dimethoxy-[1,1′-biphenyl]-2,2′,6,6′-tetrayl)tetraethanamine] | inactive | inactive | > 100 µM | > 100 µM |  | 309 ± 68.9 µM | 50 to 100 µM | RRE interaction by NMR chemical shift perturbation (in words) (RRE hairpin): unspecific |
| NC[C@H]1O[C@H](O[C@H]2[C@H](O)[C@@H](O[C@H]3O[C@H](CO)[C@@H](O)[C@H](N)[C@H]3O)[C@H](N)C[C@@H]2N)[C@H](N)C[C@@H]1O [Tobramycin, tobramycin] | 18.8 ± 2.2 | 17.6 ± 0.8 |  |  |  |  |  |  |
| succynyl-TRQARRNRRRRWRERQRAAAAR-amide (Suc-TRQARRNRRRRWRERQRAAAAR-NH2; SMILES C[C@H](NC(=O)[C@H](C)NC(=O)[C@H](C)NC(=O)[C@H](CCCNC(=N)N)NC(=O)[C@H](CCC(N)=O)NC(=O)[C@H](CCCNC(=N)N)NC(=O)[C@H](CCC(=O)O)NC(=O)[C@H](CCCNC(=N)N)NC(=O)[C@H](Cc1c[nH]c2ccccc12)NC(=O)[C@H](CCCNC(=N)N)NC(=O)[C@H](CCCNC(=N)N)NC(=O)[C@H](CCCNC(=N)N)NC(=O)[C@H](CCCNC(=N)N)NC(=O)[C@H](CC(N)=O)NC(=O)[C@H](CCCNC(=N)N)NC(=O)[C@H](CCCNC(=N)N)NC(=O)[C@H](C)NC(=O)[C@H](CCC(N)=O)NC(=O)[C@H](CCCNC(=N)N)NC(=O)[C@@H](NC(=O)CCC(=O)O)[C@@H](C)O)C(=O)N[C@@H](C)C(=O)N[C@@H](CCCNC(=N)N)C(N)=O) [revp, reference compound] |  |  |  |  |  |  |  | Kd ([4]; one-site model, read-out: equilibrium dissociation constant Kd (RRE)): 0.0042 ± 0.0034 µM; Kd(TARc)/Kd(RRE) (TARc hairpin): 4.4; Kd(RREc)/Kd(RRE) (RREc hairpin): 14.5; Ki ([5]; calculated from IC50, read-out: Ki inhibition constant): 0.0041 ± 0.0008 µM |
